Calls of active or inactive are those of the source. The calls are words filed in the database; no cut-off is given here.
Target: Human immunodeficiency virus type 1 reverse transcriptase (Human immunodeficiency virus 1) (UniProt Q72547)
Experiment: Inhibition of HIV-1 reverse transcriptase assessed as inhibition of primer extension using 5' 32P-end-labeled 17-mer DNA/40-mer RNA as primer/template up to 1 mM measured after 5 mins by PAGE analysis

In the case of `Nc1ncn([C@H]2C[C@H](O)[C@@H](COP(=O)(O)OP(=O)(O)OP(=O)(O)O)O2)c(=O)n1`, the inhibition is reported as “inactive”.
